Results on one compound are retold here after ChEMBL document CHEMBL5029164, “JNJ-67569762, A 2-Aminotetrahydropyridine-Based Selective BACE1 Inhibitor Targeting the S3 Pocket: From Discovery to Clinical Candidate” (J Med Chem, 2021).

This series can be described thus: Cardiotoxicity in human iPSC-derived cardiomyocytes assessed as calcium transport at 1 uM measured after 15 to 30 mins by fluorescence assay. Conditions: stem cell-derived cardiomyocyte, time 15-30 min. Format: cell-based.

SMILES strings stand for the structures.

As for `CCS(=O)(=O)[C@]1(C)CC[C@@](CF)(c2cc(NC(=O)c3cc4c(cn3)OC(F)(F)O4)ccc2F)N=C1N`, the Activity result is reported as “Non-Toxic”.
